pIC50: −log10 of the molar value. Like-named read-outs stand apart in the source and are kept apart here. Starred links: 1 amine or outer side, 2 acyl side, 3 side chain; linkers in the order of their positions; H or OH if unused. Positions of bridges follow the written chain, without caps; N, C: chain ends. Non-standard residues stand in square brackets, D forms with d. Residues, ends and D or L forms follow the SMILES beside them. *: point of attachment. Bip(4'-NHCO-C6H4-4-CH2COOH) = N[C@@H](Cc1ccc(-c2ccc(NC(=O)c3ccc(CC(=O)O)cc3)cc2)cc1)C(=O)O; dArg(ω-(2S)-2,3-diOHpropyl) = N=C(NCCC[C@@H](N)C(=O)O)NC[C@H](O)CO; Bip(4'-NH) = O=C([C@H](Cc1ccc(-c2ccc(N[*:3])cc2)cc1)N[*:1])[*:2]; Bip(4'-CONHMe) = CNC(=O)c1ccc(-c2ccc(C[C@H](N)C(=O)O)cc2)cc1; Indazole3carbonyl(1-CH2COOH) = O=C(O)Cn1nc(C(=O)*)c2ccccc21; Bip(4'-COOH) = N[C@@H](Cc1ccc(-c2ccc(C(=O)O)cc2)cc1)C(=O)O; Bip(4'-NHAc) = CC(=O)Nc1ccc(-c2ccc(C[C@H](N)C(=O)O)cc2)cc1; dArg(ω-Bn) = N=C(NCCC[C@@H](N)C(=O)O)NCc1ccccc1; Ala(morpholin-4-yl) = N[C@@H](CN1CCOCC1)C(=O)O; Phe(3-CONH2) = NC(=O)c1cccc(C[C@H](N)C(=O)O)c1; Bip = N[C@@H](Cc1ccc(-c2ccccc2)cc1)C(=O)O; Tic = O=C(O)[C@@H]1Cc2ccccc2CN1; Cha = N[C@@H](CC1CCCCC1)C(=O)O; Aze = O=C(O)[C@@H]1CCN1; Sar = CNCC(=O)O
Biological target: TNFα (Homo sapiens, UniProt P01375)
Assay: TNF-Induced HEK-Blue Assay
Type: cell-based
[1] = HEK-Blue-CD40L cells, NF-kB-driven secreted alkaline phosphatase reporter, TNFα 0.5 ng/ml, 18 h, read-out: TNF induced HEK-Blue assay IC50 value

Sequence of TNFα (P01375 77-233 limits assumed): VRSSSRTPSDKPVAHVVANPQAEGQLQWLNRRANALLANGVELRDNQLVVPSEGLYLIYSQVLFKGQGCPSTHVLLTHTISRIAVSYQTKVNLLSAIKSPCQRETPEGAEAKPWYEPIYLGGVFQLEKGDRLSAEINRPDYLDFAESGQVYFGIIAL

| pIC50 [1] | Compound | pIC50 |
| --- | --- | --- |
| 6.70 to 7.30 | CC(C)C[C@@H]1NC(=O)[C@H](Cc2cccc(C(N)=O)c2)NC(=O)[C@H](C(C)C)NC(=O)[C@@H]2CCCN2C(=O)[C@H](C(C)C)NC(=O)[C@@H](CCCNC(=N)NC[C@H](O)CO)NC(=O)[C@H](CC(=O)O)NC(=O)[C@H](Cc2ccc(O)cc2)NC(=O)CN(C)C(=O)[C@H](Cc2ccc(-c3ccc(NC(=O)c4ccc(CC(=O)O)cc4)cc3)cc2)NC(=O)[C@H](Cc2ccc(-c3ccccc3)cc2)NC(=O)[C@H](CN2CCOCC2)NC(=O)CSC[C@@H](C(=O)NCC(N)=O)NC1=O [Example 548] ({CH2CO}-[Ala(morpholin-4-yl)][Bip][Bip(4'-NHCO-C6H4-4-CH2COOH)][Sar]YD[dArg(ω-(2S)-2,3-diOHpropyl)]VPV[Phe(3-CONH2)]LCG-NH2; thioether N-13) |  |
| > 7.30 | CC(=O)Nc1ccc(-c2ccc(C[C@@H]3NC(=O)[C@H](Cc4ccc(-c5ccc(C(=O)O)cc5)cc4)NC(=O)[C@H](CN4CCOCC4)NC(=O)CSC[C@@H](C(=O)NCC(N)=O)NC(=O)[C@H](CC(C)C)NC(=O)[C@H](Cc4ccc(O)cc4)NC(=O)[C@H](C(C)C)NC(=O)[C@@H]4CCCN4C(=O)[C@H](C(C)C)NC(=O)[C@@H](CCCNC(=N)N)NC(=O)[C@H](CC(=O)O)NC(=O)[C@H](Cc4ccc(O)cc4)NC(=O)CN(C)C3=O)cc2)cc1 [Example 164] ({CH2CO}-[Ala(morpholin-4-yl)][Bip(4'-COOH)][Bip(4'-NHAc)][Sar]YD[dR]VPVYLCG-NH2; thioether N-13) |  |
|  | CC[C@H](C)[C@@H]1NC(=O)[C@@H]2CCCN2C(=O)[C@H](C(C)C)NC(=O)[C@H](CCCNC(=N)N)NC(=O)[C@H](CC(=O)O)NC(=O)[C@@H]2CCCN2C(=O)CN(C)C(=O)[C@H](Cc2ccc(-c3ccccc3)cc2)NC(=O)[C@H](Cc2ccc(-c3ccccc3)cc2)NC(=O)[C@H](Cc2ccccc2)NC(=O)CSC[C@@H](C(=O)NCC(N)=O)NC(=O)[C@H](CC(C)C)NC(=O)[C@H](CCCNC(=N)N)NC1=O [Example 20] ({CH2CO}-F[Bip][Bip][Sar]PDRVPIRLCG-NH2; thioether N-13) | 5.70 to 6.70 |
| 5.70 to 6.70 | CC(C)C[C@@H]1NC(=O)[C@H](CCCNC(=N)N)NC(=O)[C@H](C(C)C)NC(=O)[C@@H]2CCCN2C(=O)[C@H](C(C)C)NC(=O)[C@H](CCCNC(=N)N)NC(=O)[C@H](CC(=O)O)NC(=O)[C@@H]2CCCN2C(=O)CN(C)C(=O)[C@H](Cc2ccc(-c3ccccc3)cc2)NC(=O)[C@H](Cc2ccc(-c3ccccc3)cc2)NC(=O)[C@H](Cc2cccc(C(N)=O)c2)NC(=O)CSC[C@@H](C(=O)NCC(N)=O)NC1=O [Example 35] ({CH2CO}-[Phe(3-CONH2)][Bip][Bip][Sar]PDRVPVRLCG-NH2; thioether N-13) |  |
|  | CC(C)C[C@@H]1NC(=O)[C@H](Cc2ccc(O)cc2)NC(=O)[C@H](C(C)C)NC(=O)[C@@H]2CCCN2C(=O)[C@H](C(C)C)NC(=O)[C@@H](CCCNC(=N)NCc2ccccc2)NC(=O)[C@H](CC(=O)O)NC(=O)[C@@H]2CCCN2C(=O)CN(C)C(=O)[C@H](Cc2ccc(-c3ccc(NC(=O)c4nn(CC(=O)O)c5ccccc45)cc3)cc2)NC(=O)[C@H](Cc2ccc(-c3ccc(C(=O)O)cc3)cc2)NC(=O)[C@H](CC2CCCCC2)NC(=O)CSC[C@@H](C(=O)NCC(N)=O)NC1=O [Example 579] ({CH2CO}-[Cha][Bip(4'-COOH)][Bip(4'-NH)](Indazole3carbonyl(1-CH2COOH))[Sar]PD[dArg(ω-Bn)]VPVYLCG-NH2; thioether N-13) | > 7.30 |
| 6.70 to 7.30 | CC(=O)Nc1ccc(-c2ccc(C[C@@H]3NC(=O)[C@H](Cc4ccc(-c5ccccc5)cc4)NC(=O)[C@H](CN4CCOCC4)NC(=O)CSC[C@@H](C(=O)NCC(N)=O)NC(=O)[C@H](CC(C)C)NC(=O)[C@H](Cc4ccccc4)NC(=O)[C@H](C(C)C)NC(=O)[C@@H]4CCN4C(=O)[C@H](C(C)C)NC(=O)[C@@H](CCCNC(=N)N)NC(=O)[C@H](CC(=O)O)NC(=O)[C@H](Cc4ccccc4)NC(=O)CN(C)C3=O)cc2)cc1 [Example 217] ({CH2CO}-[Ala(morpholin-4-yl)][Bip][Bip(4'-NHAc)][Sar]FD[dR]V[Aze]VFLCG-NH2; thioether N-13) |  |
| 6.70 to 7.30 | CNC(=O)c1ccc(-c2ccc(C[C@@H]3NC(=O)[C@H](CC4CCCCC4)NC(=O)CSC[C@@H](C(=O)NCC(N)=O)NC(=O)[C@H](CC(C)C)NC(=O)[C@H](Cc4ccc(O)cc4)NC(=O)[C@H](C(C)C)NC(=O)[C@@H]4Cc5ccccc5CN4C(=O)[C@H](C(C)C)NC(=O)[C@@H](CCCNC(=N)N)NC(=O)[C@H](CC(=O)O)NC(=O)[C@@H]4CCCN4C(=O)CN(C)C(=O)[C@H](Cc4ccc(-c5ccc(NC(C)=O)cc5)cc4)NC3=O)cc2)cc1 [Example 386] ({CH2CO}-[Cha][Bip(4'-CONHMe)][Bip(4'-NHAc)][Sar]PD[dR]V[Tic]VYLCG-NH2; thioether N-13) |  |

Reference: patent US20250145665A1, “MACROCYCLIC PEPTIDES USEFUL AS MODULATORS OF TNF ALPHA” (Bristol-Myers Squibb Company, priority 2023, published 2025)
